Our source for the IC50 values is publication PMC3998834 (Biopolymers, 2014).

Structures are written as SMILES.

In this assay the test system is BT-474 cells. In words: Antiproliferative assay. In kind it is cell-based. The conditions noted are these: Homo sapiens, BT-474, 72 h, read-out: Antiproliferative activity IC50, BT-474; SD.

On to `CS(=O)(=O)CCNCc1ccc(-c2ccc3ncnc(Nc4ccc(OCc5cccc(F)c5)c(Cl)c4)c3c2)o1` [lapatinib], for which the IC50 was determined as 25 ± 4 nM.

What is called IC50 is the midpoint of a concentration-inhibition curve.
